# Assay results as given in patent US20250388571A1, “AMP-ACTIVATED PROTEIN KINASE MODULATOR COMPOUNDS AND USES THEREOF” (Biolexis Therapeutics, Inc., priority 2024, published 2025).
# Key:
# AMPK (A2/B1/G3) = AMPK (A2/B1/G3) (Homo sapiens, UniProt P54646+Q9UGI9+Q9Y478); experiment: AMPK kinase binding activity in activation mode (AC50); format: biochemical
# AMPK (A2/B1/G1) = AMPK (A2/B1/G1) (Homo sapiens, UniProt P54619+P54646+Q9Y478); experiment: as above; format: biochemical
# AMPK (A2/B2/G3) = AMPK (A2/B2/G3) (Homo sapiens, UniProt O43741+P54646+Q9UGI9); experiment: as above; format: biochemical
# Text: In Vitro AMPK Kinase Inhibition Experiments
# [1] = test system: human cardiomyocyte cells (HCM); experiment: Glucose uptake assay, human cardiomyocyte cells; format: cell-based; conditions: for AMPK activation activity (glucose uptake assay): 10 doses 100 μM to 0.005 μM
# Experimental: FIGS. 17-19 show results for glucose update assays in human cardiomyocyte cells (“HCM”-healthy donor) (Promocell, cat. no. C-12810) when treated with compound I-11 (FIG. 17), compound I-7 (FIG. 18), and PF-06409577 (FIG. 19). After recovered HCM cells for 4 days, cells were starved for 3 hours in high glucose DMEM without FBS, treated with the components noted above in DMEM without FBS/glucose for 1 hour, and glucose uptake was detected using a glucose uptake kit (Promega). […] The bars show (from left to right) concentrations of 100 μM, 33 μM, 11 μM, 3.7 μM, 1.23 μM, 0.41 μM, 0.14 μM, 0.045 μM, 0.015 μM, 0.005 μM, 0 μM, and insulin.
# FIGS. 20-22 show results for glucose update assays in human cardiomyocyte cells (“HCM”-diabetic donor) (Promocell, cat. no. C-12810) when treated with compound I-11 (FIG. 20), compound I-7 (FIG. 21), and PF-06409577 (FIG. 22). After recovered HCM cells for 4 days, cells were starved for 3 hours in high glucose DMEM without FBS, treated with the components noted above in DMEM without FBS/glucose for 1 hour, and glucose uptake was detected using a glucose uptake kit (Promega). […] The bars show (from left to right) concentrations of 100 μM, 33 μM, 11 μM, 3.7 μM, 1.23 μM, 0.41 μM, 0.14 μM, 0.045 μM, 0.015 μM, 0.005 μM, 0 μM, and insulin.
# (§1) Human skeletal myoblasts were obtained (Thermofisher; BYU) and cultured in DMEM/F12 medium with 10% FBS. For differentiation, 2% horse serum low glucose DMEM medium was employed for 72 hours. Human cardiomyocytes cells (HCM cells; Promocell) were cultured in myocyte growth medium (Promocell). Human preadipocyte HWP-c cells (Promocell) were obtained from upper arm of diabetic II donor. Human preadipocyte HWP-c cells (Promocell) were obtained from abdomen of diabetic II donor. For differentiating human preadipocytes, cells were cultured in preadipocyte growth medium to total confluency stage. The growth medium was replaced with preadipocyte differentiation medium for 72 hours, then changed to PromoCell adipocyte nutrition medium to complete the differentiation process. THLE-2 cells were cultured in BEGM from Lonza/Clonetics Corporation, Walkersville, MD 21793 (BEGM Bullet Kit; CC3170). HepG2, L6 and C2Cl2 cells were cultured in EMEM medium.
# (§2) After differentiation myoblasts, preadipocyte cells were starved by removing the medium and adding 100 μL DMEM without serum. The medium was then replaced with 100 μL DMEM±1 μM insulin at indicated concentration of representative compounds without serum or glucose. The cells were then incubated for 1 hour at 37° C. in 5% CO2. The cells were then removed from the medium and 50 μL of 0.1 mM 2DG in PBS was added. Cells were incubated for 30 minutes at 25° C. 25 μL of Stop Buffer was added and samples were mixed. 25 μL of Neutralization Buffer was then added and mixed. 100 μL of 2DG6P Detection Reagent was then added and mixed. Samples were then incubated for 1 hour at 25° C. Luminescence was then recorded with 0.3-1 second integration on a luminometer.
# [2] = test system: human skeletal muscle cells (HSKM cells); experiment: Glucose uptake assay, human skeletal muscle cells; format: cell-based; conditions: 100 μM to 0.005 μM, 1 hour
# Experimental: FIGS. 1-4 show results for cells treated with differing doses of representative compounds of Structure (I) (i.e., compound I-11 in FIG. 1 and compound I-7 in FIG. 2) as well reference compounds (i.e., PF-06409577 in FIG. 3 and MK-8722 in FIG. 4). […] Cells were starved for 3 hours in high glucose DMEM without FBS, then treated with indicated compounds in DMEM without FBS/glucose for 1 hour, and glucose uptake was detected using an uptake glucose kit (Promega). The bars show (from left to right) concentrations of 100 μM, 33 μM, 11 μM, 3.7 μM, 1.23 μM, 0.41 μM, 0.14 μM, 0.045 μM, 0.015 μM, 0.005 μM, 0 μM, and insulin.
# as §1, §2
# Sequence of AMPK (A2/B1/G1) (P54646 whole entry): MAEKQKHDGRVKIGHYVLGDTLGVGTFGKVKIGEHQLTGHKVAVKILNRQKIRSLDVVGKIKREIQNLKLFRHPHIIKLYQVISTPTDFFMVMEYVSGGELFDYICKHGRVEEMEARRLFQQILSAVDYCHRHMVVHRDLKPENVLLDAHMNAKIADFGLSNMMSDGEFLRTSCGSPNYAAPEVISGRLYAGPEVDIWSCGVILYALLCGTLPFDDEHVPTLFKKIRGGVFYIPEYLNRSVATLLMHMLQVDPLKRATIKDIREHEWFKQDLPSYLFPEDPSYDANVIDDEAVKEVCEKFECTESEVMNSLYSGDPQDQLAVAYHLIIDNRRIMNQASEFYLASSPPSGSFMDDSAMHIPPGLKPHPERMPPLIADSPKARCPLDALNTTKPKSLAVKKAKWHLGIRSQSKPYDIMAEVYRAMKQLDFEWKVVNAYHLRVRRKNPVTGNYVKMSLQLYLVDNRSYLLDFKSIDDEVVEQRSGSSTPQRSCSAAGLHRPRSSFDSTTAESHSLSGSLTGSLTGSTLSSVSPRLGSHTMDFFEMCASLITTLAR
# Sequence of AMPK (A2/B1/G1) (Q9Y478 whole entry): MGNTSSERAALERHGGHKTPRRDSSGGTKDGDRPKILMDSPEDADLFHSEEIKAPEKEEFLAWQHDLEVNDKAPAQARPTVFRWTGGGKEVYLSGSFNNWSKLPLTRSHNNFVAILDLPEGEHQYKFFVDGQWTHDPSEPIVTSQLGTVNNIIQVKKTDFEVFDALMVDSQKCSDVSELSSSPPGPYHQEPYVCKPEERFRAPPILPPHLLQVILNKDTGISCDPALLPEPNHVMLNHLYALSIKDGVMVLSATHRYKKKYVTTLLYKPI
# Sequence of AMPK (A2/B1/G1) (P54619 whole entry): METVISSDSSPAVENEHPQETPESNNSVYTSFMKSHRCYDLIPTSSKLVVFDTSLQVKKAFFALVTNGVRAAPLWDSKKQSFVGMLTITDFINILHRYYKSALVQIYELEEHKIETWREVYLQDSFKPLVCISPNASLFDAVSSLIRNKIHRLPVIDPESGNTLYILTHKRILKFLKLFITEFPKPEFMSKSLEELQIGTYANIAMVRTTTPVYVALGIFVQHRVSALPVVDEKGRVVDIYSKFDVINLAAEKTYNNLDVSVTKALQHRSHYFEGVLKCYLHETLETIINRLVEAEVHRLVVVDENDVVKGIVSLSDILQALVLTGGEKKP
# Sequence of AMPK (A2/B2/G3) (P54646 whole entry): as the sequence (P54646 whole entry) above
# Sequence of AMPK (A2/B2/G3) (O43741 whole entry): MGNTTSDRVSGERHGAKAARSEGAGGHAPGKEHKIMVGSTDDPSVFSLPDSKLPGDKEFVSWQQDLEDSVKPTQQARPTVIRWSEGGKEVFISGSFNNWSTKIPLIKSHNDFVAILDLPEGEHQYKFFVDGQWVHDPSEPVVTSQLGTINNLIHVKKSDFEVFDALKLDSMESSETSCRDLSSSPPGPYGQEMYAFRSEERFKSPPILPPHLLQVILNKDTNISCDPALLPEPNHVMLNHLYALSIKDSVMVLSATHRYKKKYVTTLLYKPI
# Sequence of AMPK (A2/B2/G3) (Q9UGI9 whole entry): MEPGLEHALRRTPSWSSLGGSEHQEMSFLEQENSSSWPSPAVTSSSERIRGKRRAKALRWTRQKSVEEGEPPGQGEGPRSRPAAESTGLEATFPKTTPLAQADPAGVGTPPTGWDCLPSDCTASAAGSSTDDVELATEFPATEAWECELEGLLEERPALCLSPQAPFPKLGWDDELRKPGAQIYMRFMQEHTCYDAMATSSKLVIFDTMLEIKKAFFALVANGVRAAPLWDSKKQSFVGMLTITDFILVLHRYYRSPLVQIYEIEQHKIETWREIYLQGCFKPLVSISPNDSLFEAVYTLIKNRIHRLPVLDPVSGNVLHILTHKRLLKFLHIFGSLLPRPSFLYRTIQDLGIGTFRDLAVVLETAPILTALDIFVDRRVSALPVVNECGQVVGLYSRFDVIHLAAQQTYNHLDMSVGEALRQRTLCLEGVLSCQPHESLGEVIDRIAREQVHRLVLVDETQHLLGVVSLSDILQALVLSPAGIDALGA
# Sequence of AMPK (A2/B1/G3) (P54646 whole entry): as the sequence (P54646 whole entry) above
# Sequence of AMPK (A2/B1/G3) (Q9Y478 whole entry): as the sequence (Q9Y478 whole entry) above
# Sequence of AMPK (A2/B1/G3) (Q9UGI9 whole entry): as the sequence (Q9UGI9 whole entry) above
Molecule,AC50 (AMPK (A2/B1/G3)) [nM],AC50 (AMPK (A2/B2/G3)) [nM],also measured
"1-(6-chloro-5-(4-(1- hydroxycyclobutyl) phenyl)- 1H-indol-3-yl)-4-methyl-4,5- dihydro-3H-1l6,2,5- thiadiazol-3-one 1-oxide (racemic) [Compound I-2, 1-(6-chloro-5-(4-(1-hydroxycyclobutyl)phenyl)-1H-indol-3-yl)-4-methyl-4,5-dihydro-3H-1l6,2,5-thiadiazol-3-one 1-oxide (racemic)]",10 to 500,,
"C[C@@H]1NS(=O)(c2c[nH]c3cc(Cl)c(-c4ccc(C5(O)CCC5)cc4)cc23)=NC1=O (stereo partly drawn) [Compound I-3, (4S)-1-(6-chloro-5-(4-(1-hydroxycyclobutyl)phenyl)-1H-indol-3-yl)-4-methyl-4,5-dihydro-3H-1l6,2,5-thiadiazol-3-one 1-oxide]",10 to 500,,
"C[C@H]1NS(=O)(c2c[nH]c3cc(Cl)c(-c4ccc(C5(O)CCC5)cc4)cc23)=NC1=O (stereo partly drawn) [Compound I-4, (4R)-1-(6-chloro-5-(4-(1-hydroxycyclobutyl)phenyl)-1H-indol-3-yl)-4-methyl-4,5-dihydro-3H-1l6,2,5-thiadiazol-3-one 1-oxide]",10 to 500,,
"O=c1[nH]c(-c2c[nH]c3ncc(-c4ccc(C5(O)CCC5)cc4)cc23)no1 [Compound I-9, 3-(5-(4-(1-hydroxycyclobutyl)phenyl)-1H-pyrrolo[2,3-b]pyridin-3-yl)-1,2,4-oxadiazol-5(4H)-one]",10 to 500,,
"COc1ccc(-c2cc3c(-c4noc(=O)[nH]4)c[nH]c3cc2F)c(OC)n1 [Compound I-14, 3-(5-(2,6-dimethoxypyridin-3-yl)-6-fluoro-1H-indol-3-yl)-1,2,4-oxadiazol-5(4H)-one]",10 to 500,,AC50 (AMPK (A2/B1/G1)): 10 to 500 nM
"O=c1[nH]c(-c2c[nH]c3cc(F)c(-c4ccc(C5(O)COC5)nc4)cc23)no1 [Compound I-18, 3-(6-fluoro-5-(6-(3-hydroxyoxetan-3-yl)pyridin-3-yl)-1H-indol-3-yl)-1,2,4-oxadiazol-5(4H)-one]",,,AC50 (AMPK (A2/B1/G1)): 7500 to 20000 nM
"O=c1[nH]c(-c2c[nH]c3ccc(N4CC[C@H](O)C4)cc23)no1 [Compound I-20, (S)-3-(5-(3-hydroxypyrrolidin-1-yl)-1H-indol-3-yl)-1,2,4-oxadiazol-5(4H)-one]",500 to 5000,,AC50 (AMPK (A2/B1/G1)): 5000 to 7500 nM
"O=P(O)(O)CSc1c[nH]c2cc(F)c(-c3ccc(N4CC[C@H](O)C4)cc3)cc12 [Compound I-24, (S)-(((6-fluoro-5-(4-(3-hydroxypyrrolidin-1-yl)phenyl)-1H-indol-3-yl)thio)methyl)phosphonic acid]",10 to 500,500 to 5000,
"O=P(O)(O)CSc1c[nH]c2cc(F)c(-c3ccc(N4CC[C@H](O)C4)cc3)c(F)c12 [Compound I-25, (S)-(((4,6-difluoro-5-(4-(3-hydroxypyrrolidin-1-yl)phenyl)-1H-indol-3-yl)thio)methyl)phosphonic acid]",10 to 500,500 to 5000,
"O=C(O)c1c[nH]c2cc(Cl)c(-c3ccc(C4CCCO4)cc3)cc12 (stereo not drawn) [PF-06409577, reference compound]",,,AMPK activation activity (glucose uptake assay) ([1]; diabetic donor): significant variability; glucose uptake ([1]; donor not stated): did not induce glucose uptake in dose-dependent manner; AMPK activation activity (glucose uptake assay) ([1]; healthy donor): significant variability; dose dependence of glucose uptake (printed: activation of insulin / AMPK activation) [2]: highly variable

# Second part, led by results:
AC50 (AMPK (A2/B1/G3)) [nM],AC50 (AMPK (A2/B2/G3)) [nM],Molecule,also measured
10 to 500,500 to 5000,"O=P(O)(O)CSc1c[nH]c2cc(F)c(N3CC[C@H](O)C3)c(F)c12 [Compound I-26, (S)-(((4,6-difluoro-5-(3-hydroxypyrrolidin-1-yl)-1H-indol-3-yl)thio)methyl) phosphonic acid]",
500 to 5000,,"O=c1[nH]c(-c2c[nH]c3cc(F)c(-c4ccc(C5(O)CCC5)cc4)nc23)no1 [Compound I-44, 3-(6-fluoro-5-(4-(1-hydroxycyclobutyl)phenyl)-1H-pyrrolo[3,2-b]pyridin-3-yl)-1,2,4-oxadiazol-5(4H)-one]",
5000 to 7500,,"O=c1[nH]c(-c2c[nH]c3cc(F)c(-c4ccc(C5(O)COC5)cc4)nc23)no1 [Compound I-45, 3-(6-fluoro-5-(4-(3-hydroxyoxetan-3-yl)phenyl)-1H-pyrrolo[3,2-b]pyridin-3-yl)-1,2,4-oxadiazol-5(4H)-one]",
10 to 500,500 to 5000,"O=P(O)(O)CSc1c[nH]c2cc(F)c(-c3ccc(C4(O)CCC4)cc3)c(F)c12 [Compound I-46, (((4,6-difluoro-5-(4-(1-hydroxycyclobutyl)phenyl)-1H-indol-3-yl)thio)methyl)phosphonic acid]",
10 to 500,500 to 5000,"O=P(O)(O)CSc1c[nH]c2cc(F)c(-c3ccc(C4(O)CCC4)cc3)cc12 [Compound I-47, (((6-fluoro-5-(4-(1-hydroxycyclobutyl)phenyl)-1H-indol-3-yl)thio)methyl)phosphonic acid]",
10 to 500,500 to 5000,"O=P(O)(O)CSc1c[nH]c2ccc(-c3ccc(C4(O)CCC4)cc3)cc12 [Compound I-48, (((5-(4-(1-hydroxycyclobutyl)phenyl)-1H-indol-3-yl)thio)methyl)phosphonic acid]",
500 to 5000,500 to 5000,"OB1OCc2ccc(-c3c[nH]c4cc(Cl)c(-c5ccc(C6(O)CCC6)cc5)cc34)cc21 [Compound I-75, 6-(6-chloro-5-(4-(1-hydroxycyclobutyl)phenyl)-1H-indol-3-yl)benzo[c][1,2]oxaborol-1(3H)-ol]",
≤ 10,500 to 5000,"O=C1CN(c2c[nH]c3cc(Cl)c(-c4ccc(C5(O)CCC5)cc4)cc23)S(=O)(=O)N1 [Compound I-76, 5-(6-chloro-5-(4-(1-hydroxycyclobutyl)phenyl)-1H-indol-3-yl)-1,2,5-thiadiazolidin-3-one 1,1-dioxide]",
≤ 10,5000 to 7500,"Cc1ccc(N2CC(=O)NS2(=O)=O)cc1Oc1nc2nc(-c3ccc(C4(O)CCC4)cc3)c(Cl)cc2[nH]1 [II-21, 5-(3-((6-chloro-5-(4-(1-hydroxycyclobutyl)phenyl)-1H-imidazo[4,5-b]pyridin-2-yl)oxy)-4-methylphenyl)-1,2,5-thiadiazolidin-3-one 1,1-dioxide]",
10 to 500,10 to 500,"Cc1ccc(N2CC(=O)NS2(=O)=O)cc1Oc1nc2cc(-c3ccc(C4(O)CCC4)cc3)c(F)cc2[nH]1 [II-22, 5-(3-((6-fluoro-5-(4-(1-hydroxycyclobutyl)phenyl)-1H-benzo[d]imidazol-2-yl)oxy)-4-methylphenyl)-1,2,5-thiadiazolidin-3-one 1,1-dioxide]",
10 to 500,10 to 500,"Cc1ccc(N2CC(=O)NS2(=O)=O)cc1Oc1nc2cc(-c3ccc(C4(O)CCC4)cc3)c(Cl)cc2[nH]1 [II-23, 5-(3-((6-chloro-5-(4-(1-hydroxycyclobutyl)phenyl)-1H-benzo[d]imidazol-2-yl)oxy)-4-methylphenyl)-1,2,5-thiadiazolidin-3-one 1,1-dioxide]",
≤ 10,10 to 500,"Cc1cc2c(cc1Oc1nc3nc(-c4ccc(C5(O)CCC5)cc4)c(Cl)cc3[nH]1)B(O)OC2 [II-26, 6-((6-chloro-5-(4-(1-hydroxycyclobutyl)phenyl)-1H-imidazo[4,5-b]pyridin-2-yl)oxy)-5-methylbenzo[c][1,2]oxaborol-1(3H)-ol]",
